From patent US8182844B2, “Use of Clerodendrum sp. for treating tic disorders or psychiatric disorders with sensorimotor gating deficits” (priority 2010, dated 2012)

system: chronic motor tic disorder; test: Case report: effect on tics in a child with chronic motor tic disorder; type: in vivo, human; details: single patient, before taking the leaf extract
Procedure: Withholding all medications for 1 day, they received examination of catecholamine metabolites in the cerebrospinal fluid.
Subsequently, this patient, started to take the extract of the grounded leaves of Clerodendrum inerme, which was prepared by mixing the leaves with water by a blender and collecting the juice after filtration as resulted. […] Honey was added because of the bitter taste. […] The follow-up IQ test had been arranged, but the patient was absent on the examination day.
This patient followed up regularly in NTUH pediatric outpatient clinic for their seizure problem.

| Molecule | effect of earlier anti-tic medications on the involuntary movements of the patient |
| --- | --- |
| CN1C(=O)CN=C(c2ccccc2)c2cc(Cl)ccc21 [diazepam] | in vain |
| Clc1cccc(Cl)c1N=C1NCCN1 [clonidine] | without success |
| Cc1nc2n(c(=O)c1CCN1CCC(c3noc4cc(F)ccc34)CC1)CCCC2 [Risperidone] | in vain |
| CCN1CCCC1CNC(=O)c1cc(S(N)(=O)=O)ccc1OC (stereo not drawn) [sulpiride] | without success |
| biperidal | without success |
| CCCN1C[C@H](CSC)C[C@@H]2c3cccc4[nH]cc(c34)C[C@H]21 [pergolide] | without success |
| O=C(CCCN1CCC(O)(c2ccc(Cl)cc2)CC1)c1ccc(F)cc1 [haloperidol] | in vain |

system: methamphetamine-induced PPI disruption in mice; test: Methamphetamine-induced disruption of prepulse inhibition of the startle response (PPI), dopamine hypothesis model; type: in vivo, mouse; details: diazepam, dose not given; methamphetamine 2 mg/kg; FIG. 2B
Text: PPI is a neurophysiological phenomenon that the startle response to a stimulus, which could be a sound, an airpuff or a light, is inhibited if a stimulus with the same source but at weaker intensity prior to the stimulus was applied within a short interval. This is a fast neuroadaptative system to protect the living organisms from startle stimulation. It is believed to be a processing protection in a living organism that PPI serves as a sensorimotor gating, a pre-conscious regulator of attention, to reduce the startle response which is harmful to the information professing. […] PPI can be assessed by the motor response in either humans (measuring the eyeblink response by electromyograph) or animals (measuring the startle response).
Mice were i.p. injected by methamphetamine (2 mg/kg) to induce PPI disruption, as a schizophrenia model based on dopamine hypothesis. PPI was measured using the SR-LAB Startle Response System (San Diego Instrument, San Diego, Calif.). […] In the startle-alone trials, the basic auditory startle was measured, and in the prepulse-plus-startle trials, the amount of inhibition of normal startle induced by the prepulse was measured and expressed as a percentage of the basic startle. In the prepulse-alone trials, the normal response to a weak noise was measured as a control.

| Molecule | rescue of methamphetamine-induced PPI disruption |
| --- | --- |
| CN1C(=O)CN=C(c2ccccc2)c2cc(Cl)ccc21 [diazepam] | did not rescue |

same assay, conditions: methamphetamine 2 mg/kg i.p. alone, without extract; 71 db prepulse; control mice 55.6±3.5%

| Molecule | PPI (inhibition of startle response to 115 db by prepulse) |
| --- | --- |
| CN[C@@H](C)Cc1ccccc1 [methamphetamine] | 42.4±4.1% |
